From patent US20100285957A1, “THIAZOLYLOXYPHENYLAMIDINES OR THIADIAZOLYLOXYPHENYLAMIDINES AND THEIR USE AS FUNGICIDES” (Bayer CropScience AG, priority 2007, published 2010)

Assays:
[1] = test system: Sphaerotheca fuliginea; experiment: Sphaerotheca test (cucumber)/protective; type: in vivo; conditions: Podosphaera fuliginea, 168 h, 100 ppm active substance, protective, evaluation 7 days after inoculation, read-out: degree of effectiveness
How it was run: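 Young cucumber plants were sprayed protectively with the formulated compound at the stated rate, dried, then inoculated with S. fuliginea spores. Kept in greenhouse at ~23° C. and ~70% relative humidity; efficacy scored 7 days post-inoculation (0% = untreated control, 100% = no infestation).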

[2] = test system: Uromyces appendiculatus; experiment: Uromyces test (beans)/protective; type: in vivo; conditions: 240 h, 100 ppm active substance, protective, evaluation 10 days after inoculation, read-out: degree of effectiveness
How it was run: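 Young bean plants were sprayed with the formulated compound at the stated application rate, dried, then inoculated with U. appendiculatus spores. They were held 1 day at ~20 °C and 100% RH, then in a greenhouse at ~21 °C and ~90% RH. Efficacy was scored 10 days post-inoculation: 0% equals the control, 100% means no infestation.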

[3] = test system: Phakopsora pachyrhizi; experiment: Phakopsora test (soya)/protective; type: in vivo; conditions: 264 h, 100 ppm active substance, protective, evaluation 11 days after inoculation, read-out: degree of effectiveness
Method: Phakopsora Test (Soya)/Protective
(§1) To prepare a suitable active substance composition, 1 part by weight of active substance is mixed with the given amounts of solvent and emulsifier and the concentrate is diluted to the desired concentration using water.
(§2) For the testing of protective effectiveness, young plants are sprayed with the active substance composition in the application rate given. After the spray coating has been dried on, the plants are inoculated with an aqueous suspension of the spores of Phakopsora pachyrhizi and then remain in an incubation chamber at approximately 20° C. and 80% relative humidity for 1 day.
Evaluation is carried out 11 days after the inoculation. In this connection, 0% means a degree of effectiveness corresponding to that of the control, while a degree of effectiveness of 100% means that no infestation is observed.

[4] = test system: Cochliobolus miyabeanus; experiment: Cochliobolus test (rice)/protective; type: in vivo; conditions: 250 ppm active substance, protective, evaluation 4 days after inoculation
Method: Cochliobolus Test (Rice)/Protective
as §1
as §2, with “Cochliobolus miyabeanus” for “Phakopsora pachyrhizi”, “25°” for “20°”, “100%” for “80%”
Evaluation is carried out 4 days after the inoculation. In this connection, 0% means a degree of effectiveness corresponding to that of the control, while a degree of effectiveness of 100% means that no infestation is observed.

[5] = test system: Alternaria solani; experiment: Alternaria test (tomato)/protective; type: in vivo; conditions: 168 h, 500 ppm active substance, protective, evaluation 7 days after inoculation, read-out: degree of effectiveness
How it was run: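 Young tomato plants sprayed with emulsified active substance at the stated rate, inoculated 1 day later with Alternaria solani spores. Held 24 h at 100% RH and 20 °C, then 96% RH, 20 °C. Scored 7 days post-inoculation; 0% = untreated control, 100% = no infestation.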

[6] = test system: Pyrenophora teres; experiment: Pyrenophora teres test (barley)/protective; type: in vivo; conditions: 500 ppm active substance, protective, evaluation 7-9 days after inoculation, read-out: degree of effectiveness
[7] = physchem; conditions: pH 2.3

SMILES: CCN(C)C=Nc1cc(C)c(Oc2nc(C3(C)CC3(Cl)Cl)ns2)cc1C (stereo not shown) [Compound 25, N′-(4-{[3-(2,2-Dichloro-1-methylcyclopropyl)-1,2,4-thiadiazol-5-yl]oxy}-2,5-dimethylphenyl)-N-ethyl-N-methylimidoformamide]
- pest or weed control at 100 ppm [1]: ≥ 70%
- pest or weed control at 100 ppm [2]: ≥ 70%
- pest or weed control at 100 ppm [3]: ≥ 80%
- degree of effectiveness [4]: ≥ 80%
- pest or weed control at 500 ppm [5]: ≥ 70%
- pest or weed control at 500 ppm [6]: ≥ 70%
- logP [7]: 2.03
